Reference: patent publication US10098975B2, “Labeled pkg-1-alpha-binding compounds and their use in imaging and quantifying pain” (THE TRUSTEES OF COLUMBIA UNIVERSITY IN THE CITY OF NEW YORK, priority 2013, dated 2018)

Assays:
[1] = molecular target: T1, PKG (Homo sapiens, UniProt Q13976); assay: IC50 of NOP46 for PKG; assay type: biochemical
T1 sequence (Q13976 1-671): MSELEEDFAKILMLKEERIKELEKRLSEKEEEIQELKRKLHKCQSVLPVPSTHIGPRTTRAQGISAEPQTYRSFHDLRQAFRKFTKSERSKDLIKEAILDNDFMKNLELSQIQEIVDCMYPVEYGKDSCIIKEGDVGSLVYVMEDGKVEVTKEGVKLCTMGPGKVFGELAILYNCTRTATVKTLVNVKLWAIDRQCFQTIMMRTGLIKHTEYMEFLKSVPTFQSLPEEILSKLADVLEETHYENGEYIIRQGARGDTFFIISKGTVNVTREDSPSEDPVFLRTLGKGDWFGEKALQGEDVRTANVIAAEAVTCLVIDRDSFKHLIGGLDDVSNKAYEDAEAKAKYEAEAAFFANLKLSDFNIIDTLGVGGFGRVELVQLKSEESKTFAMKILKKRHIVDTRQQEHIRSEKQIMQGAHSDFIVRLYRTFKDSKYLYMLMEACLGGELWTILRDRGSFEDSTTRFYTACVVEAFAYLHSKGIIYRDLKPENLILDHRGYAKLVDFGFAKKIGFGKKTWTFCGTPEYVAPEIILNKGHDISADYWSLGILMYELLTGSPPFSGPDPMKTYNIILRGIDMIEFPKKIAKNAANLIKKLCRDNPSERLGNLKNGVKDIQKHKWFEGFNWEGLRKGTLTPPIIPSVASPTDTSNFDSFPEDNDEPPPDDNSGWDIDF

[2] = molecular target: Protein Kinase A (PKA) (Homo sapiens, UniProt P17612); assay: IC50 of NOP46 for Protein Kinase A; assay type: biochemical
[3] = Distribution to dorsal root ganglion and CNS after injection; assay type: in vivo
[4] = Stability in blood in vitro; assay type: in vitro ADME
[5] = Clearance from circulation after intravenous injection; assay type: in vivo; conditions: following intravenous injection
[6] = Microsome preparations (metabolism); assay type: in vitro ADME
[7] = Tissue distribution studies; assay type: in vivo; conditions: initial levels
[8] = molecular target: T2, PKG1alpha(h) (Homo sapiens, UniProt Q13976); assay: Kinase panel (287 kinases, optimal ATP): PKG1alpha(h); assay type: biochemical; conditions: assayed in 287 kinases at their optimal ATP concentrations
T2 sequence (Q13976 1-671): T1 sequence (Q13976 1-671)
Protocol: Its kinase inhibiting activity was assayed in 287 kinases at their optimal ATP concentrations. Members of all the kinome families were represented.

[9] = system: models of chronic pain; assay: Rat models of chronic pain (mechanical allodynia, thermal hyperalgesia); assay type: in vivo; conditions: injected into rats, FIG. 6
Description: (§1) Evaluation of neuroma pain was made possible with the advent of a novel protocol in rats whereby the end of a transected tibial nerve is transposed and then anchored just beneath the skin of the ankle. This allows the allodynia from the neuroma to be evaluated by systematically applying pressure to the overlying skin and observing whether the rat raises the leg.

[10] = system: neuroma pain; assay: Tibial neuroma transposition model of neuroma pain in rats; assay type: in vivo; conditions: transected tibial nerve transposed beneath ankle skin
Description: as §1

SMILES: CCCOc1ccc(OC)c(F)c1C(=O)c1ccc(C(=O)N[C@@H]2CNC[C@H]2NC(=O)c2ccc3[nH]ncc3c2)cc1 [NOP46, N-((3R,4R)-4-(4-(2-fluoro-3-methoxy-6-propoxybenzoyl)benzamido)pyrrolidin-3-yl)-1H-indazole-5-carboxamide]
- IC50 [1]: 0.0075 µM
- Kinetic analysis: mode of inhibition ([1]; with respect to the ATP site): non-competitive inhibitor of the ATP site
- IC50 [2]: 2 µM
- Entry into the central nervous system [3]: does not enter the central nervous system
- Time to reach the DRG [3]: ≤ 30 min
- Stability within the ganglion ([3]; dorsal root ganglion): at least 24 h
- Stability in blood [4]: stable in blood in vitro
- Clearance from the circulation [5]: rapidly cleared from the circulation
- Metabolic degradation pathway [6]: degraded by carbonyl reduction and depropylation
- Tissue level in the liver [7]: high initial levels of NOP46 in the liver
- Selectivity of kinase inhibition [8]: selectively inhibits activated PKG1alpha
- Mechanical allodynia [9]: alleviated mechanical allodynia
- Thermal hyperalgesia [9]: alleviated
- Neuroma pain [10]: alleviates neuroma pain
